# Reference: BindingDB's records for doi:10.1021/jm0011169 (Stockholm University, 2001)
# Molecular target: T1, Dimer of Gag-Pol polyprotein [489-587] (Human immunodeficiency virus 1, UniProt P12497)
# T1 construct: 489-587
# Assay: Protease Inhibition Assay
# Settings: pH 5; 30 °C
# Method: A fluorimetric assay was used to determine the effects of the inhibitors on HIV-1 protease. This assay used an internally quenched fluorescent peptide substrate. The measurements were performed in 96-well plates with a Fluoroscan plate reader. Excitation and emission wavelengths were 355 nm and 500 nm, respectively.
row,Compound,Ki [nM]
1,"O=C(N[C@H]1c2ccccc2C[C@H]1O)[C@H](Sc1ccccn1)[C@H](O)[C@@H](O)[C@@H](Sc1ccccn1)C(=O)N[C@H]1c2ccccc2C[C@H]1O [N1,N6-Di[(2R)-hydroxy-(1S)-indanyl]-(2R,3R,4R,5R)-3,4-dihydroxy-2,5-di(2-pyridylsulfanyl)hexanediamide]",285
2,"O=C(N[C@H]1c2ccccc2C[C@H]1O)[C@H](Sc1ccccc1)[C@H](O)[C@@H](O)[C@@H](Sc1ccccc1)C(=O)N[C@H]1c2ccccc2C[C@H]1O [N1,N6-Di[(2R)-hydroxy-(1S)-indanyl]-(2R,3R,4R,5R)-3,4-dihydroxy-2,5-di(phenylsulfanyl)hexanediamide]",1.8
3,"O=C(N[C@H]1c2ccccc2C[C@H]1O)[C@H](SCc1ccccc1)[C@H](O)[C@@H](O)[C@@H](SCc1ccccc1)C(=O)N[C@H]1c2ccccc2C[C@H]1O [N1,N6-Di[(2R)-hydroxy-(1S)-indanyl]-(2R,3R,4R,5R)-2,5-di(benzylsulfanyl)-3,4-dihydroxyhexanediamide]",2.8
4,"C=CCS[C@@H](C(=O)N[C@H]1c2ccccc2C[C@H]1O)[C@H](O)[C@@H](O)[C@@H](SCC=C)C(=O)N[C@H]1c2ccccc2C[C@H]1O [(2R,3R,4R,5R)-3,4-dihydroxy-N,N'-bis[(1S,2R)-2-hydroxy-2,3-dihydro-1H-inden-1-yl]-2,5-bis(prop-2-en-1-ylsulfanyl)hexanediamide]",16
5,"O=C(N[C@H]1c2ccccc2C[C@H]1O)[C@H](Sc1ccccc1F)[C@H](O)[C@@H](O)[C@@H](Sc1ccccc1F)C(=O)N[C@H]1c2ccccc2C[C@H]1O [(2R,3R,4R,5R)-2,5-bis[(2-fluorophenyl)sulfanyl]-3,4-dihydroxy-N,N'-bis[(1S,2R)-2-hydroxy-2,3-dihydro-1H-inden-1-yl]hexanediamide]",2.3
6,"O=C(N[C@H]1c2ccccc2C[C@H]1O)[C@H](SCc1ccccc1F)[C@H](O)[C@@H](O)[C@@H](SCc1ccccc1F)C(=O)N[C@H]1c2ccccc2C[C@H]1O [N1,N6-Di[(2R)-hydroxy-(1S)-indanyl]-(2R,3R,4R,5R)-2,5-di(2-fluorobenzylsulfanyl)-3,4-dihydroxyhexanediamide]",4.3
